The source of these data is PubChem BioAssay (NCI).

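Dose response: 5 concentrations. Exposure: 48 h. Format: 96-well plates. Endpoint: linear interpolation; highest concentration if not reached. TGI marks complete inhibition of growth.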

Holding throughout (experiment): NCI tumour cell line growth inhibition, 48 h
Assay [1] has as its system NCI-H460 lung.
For assay [2], the system named is MALME-3M melanoma.
The test system of assay [3] is EKVX NSCLC.
Assay [4] relates to UACC-257 melanoma.
For assay [5], the system named is SN12C renal.
Assay [6] has as its system HCC-2998 colon.
For assay [7], the system named is SNB-75 CNS.
The subject of assay [8] is SF-268 CNS.
The test system of assay [9] is MDA-MB-231 breast.
The test system of assay [10] is UACC-62 melanoma.

With `COc1ncc(/C=C2\OC(=O)c3ccccc32)c(OC)n1`, the TGI in assay [1], in assay [2], in assay [3], in assay [4], in assay [5] and in [6] was above 100 µM in each case. Moreover, the results for the TGI in assay [7], in assay [8] and in assay [9] were 47.3 µM, above 100 µM and above 100 µM, respectively.
As to `Nc1nc(-c2ccccc2)nc2oc(-c3cccs3)nc12`, the TGI in [1], in [3], in assay [4], in assay [5], in assay [10] and in assay [6] was above 100 µM throughout. Besides, the TGI in assay [7], in assay [8] and in assay [9] was above 100 µM throughout.
Turning to `S=C(N/N=C(/c1ccccc1)c1ccccn1)N(Cc1ccccn1)Cc1ccccn1`, the TGI in [1] stood at 4.7 µM; in assay [2] it was 2.45 µM; in assay [3] it was 1.7 µM; in assay [4] it was 2.42 µM; in [5], 3.47 µM; in [10] it was 2.21 µM. Moreover, the results for the TGI in assay [7], in assay [8] and in assay [9] were 2.24 µM, 4.84 µM and 2.72 µM, respectively.
In the case of `N#CC(Cc1ccccc1)N(CCC1=CCCCC1)C(c1ccccc1)c1ccccc1` (centres undefined), the TGI in [1], in assay [2], in [3], in [4], in [10] and in assay [6] was above 100 µM in each case. Further, the TGI in assay [7], in assay [8] and in [9] was above 100 µM each time.
Consider `CCN(CC)CCNC(=O)c1cc2cc(NC(=O)c3cc4cc([N+](=O)[O-])ccc4[nH]3)ccc2[nH]1`, for which the TGI in [1] was above 100 µM; in assay [3], above 100 µM; in assay [4], above 87.1 µM; in [5] it was above 100 µM; in [10], 87.5 µM; in assay [6], above 73.6 µM. Moreover, the TGI in assay [7], in assay [8] and in assay [9] was above 100 µM each time.
In the case of `Cc1cccc(Cn2c3c(c4cc(O)ccc42)C(=O)c2ccccc2C3=O)c1`, the TGI was above 100 µM in assay [1]; above 100 µM in assay [2]; 49 µM in assay [3]; above 100 µM in assay [4]; above 100 µM in [5]; above 100 µM in assay [10]. Moreover, the TGI is 8.63 µM in assay [7], above 100 µM in [8] and above 70.8 µM in assay [9].
Turning to `C[C@]12CC[C@H](O)CC1=CC[C@@H]1[C@@H]2CC[C@]2(C)C(=N/N)/C(=N\O)C[C@@H]12`, the TGI in assay [2] is above 100 µM; in assay [3], above 100 µM; in assay [4], above 100 µM; in [5], above 100 µM; in assay [10], above 100 µM; in [7] it was 30.5 µM. In addition, the TGI in [8] and in [9] was above 100 µM throughout.
Consider `COC(=O)C1CC(C=[N+](C)C)=C(SC)N1C(=O)OCc1ccccc1` (centres undefined), for which the TGI in [1], in assay [2], in assay [3], in [4], in [10] and in [6] was above 100 µM each time. Further, the TGI in assay [7], in assay [8] and in assay [9] was above 100 µM throughout.
As to `Cc1ccnc(NS(=O)(=O)c2ccc(N=[N+]=[N-])cc2)n1`, the TGI in [1], in [2], in [3], in assay [4], in [5] and in assay [10] was above 100 µM throughout. Also, the TGI in assay [7], in assay [8] and in assay [9] was above 100 µM each time.
In the case of `COc1cccc(Nc2nc(-c3cccs3)nc3cc(OC)c(OC)cc23)c1`, the TGI in assay [1] is 79.4 µM; in [2], above 100 µM; in assay [3], above 100 µM; in assay [4], above 100 µM; in assay [5], 53.8 µM; in [10], 39.8 µM. Also, the figures for the TGI in assay [7], in assay [8] and in assay [9] were 73.5 µM, above 100 µM and 53.8 µM, respectively.
Turning to `C=CC1(CC/C(=C\[N+](=O)[O-])c2ccc(OC)c(OC)c2)OCC(C)(C)CO1`, the TGI in assay [1] amounted to 55 µM; in [2], 45.5 µM; in assay [3], 40.1 µM; in assay [4], 26.8 µM; in assay [5], 47.6 µM; in assay [10] it was 29.4 µM. Besides, the TGI in [6] came to 46.2 µM; in assay [8], 39.1 µM; in assay [9], 75.8 µM.
In the case of `N=c1nnc2ccc(Cl)cc2n1O`, the TGI in assay [2], in assay [3], in assay [4], in assay [5], in assay [10] and in assay [6] was above 100 µM each time. The TGI in [7], in [8] and in assay [9] was above 100 µM in each case.
On to `Cc1ccc(N(Cc2ccccc2)Cc2ccccc2)cc1`, for which the TGI in [1] is above 100 µM; in assay [2], 61 µM; in assay [3], above 100 µM; in [4], above 100 µM; in [5], above 100 µM; in [10], above 100 µM. The TGI in assay [7], in [8] and in assay [9] was above 100 µM in each case.
Regarding `COP(=O)(OC)C1=c2c(C)noc2=C2C=COC2C1=O` (centres undefined), the TGI in assay [2], in [3], in assay [4], in assay [5], in [10] and in assay [6] was above 100 µM throughout. Besides, the TGI in assay [7], in [8] and in assay [9] was above 100 µM each time.
Take `NS(=O)(=O)c1nnc(NC(=O)Nc2ccc(Cl)c(Cl)c2)s1`: the TGI in assay [1] was 55.3 µM; in [2], 39.9 µM; in assay [3], 94.6 µM; in [4], 42 µM; in assay [5], 39.7 µM; in [10], 31.2 µM. The TGI turned out to be 34.8 µM in assay [6], 67.5 µM in assay [8] and 67.1 µM in [9].
